In PMC12670405, “Second-Generation AURKA-Targeting PROTACs: Structural Optimization toward in Vivo Degradation in Neuroblastoma” (Journal of Medicinal Chemistry, 2025):

Columns and labels:
Experiment in all cases: KINOMEscan scanMAX
Assay type in all cases: binding
Conditions in all cases: read-out: Percent Control
[1] = target: T1, FLT1 (Homo sapiens, UniProt P17948)
T1 construct: purchased Eurofins Discovery (DiscoverX KINOMEscan scanMAX)
Experimental: (§1) The kinome-wide binding assay was performed by Eurofins Discovery using the scanMAX screening platform. More information can be found on the Eurofins Discovery Web site.

[2] = target: T2, IRAK4 (Homo sapiens, UniProt Q9NWZ3)
T2 construct: purchased Eurofins Discovery (DiscoverX KINOMEscan scanMAX)
Experimental: as §1

[3] = target: T3, MYLK4 (Homo sapiens, UniProt Q86YV6)
T3 construct: purchased Eurofins Discovery (DiscoverX KINOMEscan scanMAX)
T3 sequence (Q86YV6 whole entry): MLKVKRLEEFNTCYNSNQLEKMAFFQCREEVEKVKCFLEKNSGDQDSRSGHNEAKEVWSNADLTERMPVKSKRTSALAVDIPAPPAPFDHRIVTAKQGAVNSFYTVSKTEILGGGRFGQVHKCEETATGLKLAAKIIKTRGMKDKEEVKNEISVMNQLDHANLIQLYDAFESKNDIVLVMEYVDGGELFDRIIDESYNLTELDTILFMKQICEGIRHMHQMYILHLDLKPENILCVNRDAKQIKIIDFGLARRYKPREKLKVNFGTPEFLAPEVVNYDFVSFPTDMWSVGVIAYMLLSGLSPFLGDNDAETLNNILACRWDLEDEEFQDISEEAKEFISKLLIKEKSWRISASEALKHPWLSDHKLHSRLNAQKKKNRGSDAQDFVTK
Experimental: as §1

[4] = target: T4, TRKA (Homo sapiens, UniProt P04629)
T4 construct: purchased Eurofins Discovery (DiscoverX KINOMEscan scanMAX)
Experimental: as §1

[5] = target: T5, CAMK4 (Homo sapiens, UniProt Q16566)
T5 construct: purchased Eurofins Discovery (DiscoverX KINOMEscan scanMAX)
Experimental: as §1

[6] = target: T6, CHEK2 (Homo sapiens, UniProt O96017)
T6 construct: purchased Eurofins Discovery (DiscoverX KINOMEscan scanMAX)
Experimental: as §1

[7] = target: T7, MLK1 (Homo sapiens, UniProt P80192)
T7 construct: purchased Eurofins Discovery (DiscoverX KINOMEscan scanMAX)
T7 sequence (P80192 whole entry): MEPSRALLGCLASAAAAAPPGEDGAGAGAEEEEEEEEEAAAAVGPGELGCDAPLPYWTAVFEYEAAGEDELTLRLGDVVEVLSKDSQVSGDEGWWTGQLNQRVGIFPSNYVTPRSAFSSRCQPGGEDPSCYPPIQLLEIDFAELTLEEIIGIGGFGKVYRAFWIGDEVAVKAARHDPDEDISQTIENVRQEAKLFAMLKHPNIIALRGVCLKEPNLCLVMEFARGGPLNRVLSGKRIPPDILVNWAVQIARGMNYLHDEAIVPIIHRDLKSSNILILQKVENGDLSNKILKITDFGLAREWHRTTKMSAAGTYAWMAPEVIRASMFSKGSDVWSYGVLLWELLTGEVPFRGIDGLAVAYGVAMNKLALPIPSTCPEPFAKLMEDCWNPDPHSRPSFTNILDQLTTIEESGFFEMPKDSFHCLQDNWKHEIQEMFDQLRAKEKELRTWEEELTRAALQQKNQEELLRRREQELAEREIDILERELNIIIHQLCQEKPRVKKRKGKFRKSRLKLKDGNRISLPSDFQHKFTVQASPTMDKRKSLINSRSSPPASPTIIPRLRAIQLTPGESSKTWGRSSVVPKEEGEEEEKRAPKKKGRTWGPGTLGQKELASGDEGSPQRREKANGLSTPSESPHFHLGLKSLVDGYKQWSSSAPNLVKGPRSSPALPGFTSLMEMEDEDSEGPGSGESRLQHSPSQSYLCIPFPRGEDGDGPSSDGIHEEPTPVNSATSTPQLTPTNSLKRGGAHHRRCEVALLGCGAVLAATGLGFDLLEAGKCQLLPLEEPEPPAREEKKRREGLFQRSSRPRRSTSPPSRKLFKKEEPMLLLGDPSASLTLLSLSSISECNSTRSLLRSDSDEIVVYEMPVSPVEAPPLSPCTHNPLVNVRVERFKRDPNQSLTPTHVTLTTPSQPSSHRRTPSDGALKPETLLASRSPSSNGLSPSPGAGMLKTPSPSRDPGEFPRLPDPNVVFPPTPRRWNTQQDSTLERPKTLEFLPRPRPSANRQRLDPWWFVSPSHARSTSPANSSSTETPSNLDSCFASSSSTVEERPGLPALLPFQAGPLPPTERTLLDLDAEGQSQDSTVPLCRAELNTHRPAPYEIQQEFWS
Experimental: as §1

[8] = target: T8, JNK3 (Homo sapiens, UniProt P53779)
T8 construct: purchased Eurofins Discovery (DiscoverX KINOMEscan scanMAX)
Experimental: as §1

[9] = target: T9, ACVRL1 (Homo sapiens, UniProt P37023)
T9 construct: purchased Eurofins Discovery (DiscoverX KINOMEscan scanMAX)
Experimental: as §1

[10] = target: T10, TNK1 (Homo sapiens, UniProt Q13470)
T10 construct: purchased Eurofins Discovery (DiscoverX KINOMEscan scanMAX)
Experimental: as §1

[11] = target: T11, ABL1-nonphosphorylated (Homo sapiens, UniProt P00519)
T11 construct: purchased Eurofins Discovery (DiscoverX KINOMEscan scanMAX)
Experimental: as §1

[12] = target: T12, ABL1(T315I)-phosphorylated (Homo sapiens, UniProt P00519, T315I)
T12 construct: purchased Eurofins Discovery (DiscoverX KINOMEscan scanMAX)
Experimental: as §1

[13] = target: T13, EPHA1 (Homo sapiens, UniProt P21709)
T13 construct: purchased Eurofins Discovery (DiscoverX KINOMEscan scanMAX)
Experimental: as §1

[14] = target: T14, MEK1 (Homo sapiens, UniProt Q02750)
T14 construct: purchased Eurofins Discovery (DiscoverX KINOMEscan scanMAX)
T14 sequence (Q02750 whole entry): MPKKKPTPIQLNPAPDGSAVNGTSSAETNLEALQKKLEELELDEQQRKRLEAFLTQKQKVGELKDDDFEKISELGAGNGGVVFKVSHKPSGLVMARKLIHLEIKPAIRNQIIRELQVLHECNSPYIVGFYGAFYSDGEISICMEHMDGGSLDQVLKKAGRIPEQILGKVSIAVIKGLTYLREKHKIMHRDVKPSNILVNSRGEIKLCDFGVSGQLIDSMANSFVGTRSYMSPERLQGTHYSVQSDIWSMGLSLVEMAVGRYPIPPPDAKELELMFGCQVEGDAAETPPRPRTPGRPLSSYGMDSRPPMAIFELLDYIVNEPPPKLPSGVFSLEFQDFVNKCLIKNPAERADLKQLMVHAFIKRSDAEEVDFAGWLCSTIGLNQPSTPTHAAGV
Experimental: as §1

[15] = target: T15, NLK (Homo sapiens, UniProt Q9UBE8)
T15 construct: purchased Eurofins Discovery (DiscoverX KINOMEscan scanMAX)
Experimental: as §1

[16] = target: T16, YSK4 (Homo sapiens, UniProt Q56UN5)
T16 construct: purchased Eurofins Discovery (DiscoverX KINOMEscan scanMAX)
T16 sequence (Q56UN5 whole entry): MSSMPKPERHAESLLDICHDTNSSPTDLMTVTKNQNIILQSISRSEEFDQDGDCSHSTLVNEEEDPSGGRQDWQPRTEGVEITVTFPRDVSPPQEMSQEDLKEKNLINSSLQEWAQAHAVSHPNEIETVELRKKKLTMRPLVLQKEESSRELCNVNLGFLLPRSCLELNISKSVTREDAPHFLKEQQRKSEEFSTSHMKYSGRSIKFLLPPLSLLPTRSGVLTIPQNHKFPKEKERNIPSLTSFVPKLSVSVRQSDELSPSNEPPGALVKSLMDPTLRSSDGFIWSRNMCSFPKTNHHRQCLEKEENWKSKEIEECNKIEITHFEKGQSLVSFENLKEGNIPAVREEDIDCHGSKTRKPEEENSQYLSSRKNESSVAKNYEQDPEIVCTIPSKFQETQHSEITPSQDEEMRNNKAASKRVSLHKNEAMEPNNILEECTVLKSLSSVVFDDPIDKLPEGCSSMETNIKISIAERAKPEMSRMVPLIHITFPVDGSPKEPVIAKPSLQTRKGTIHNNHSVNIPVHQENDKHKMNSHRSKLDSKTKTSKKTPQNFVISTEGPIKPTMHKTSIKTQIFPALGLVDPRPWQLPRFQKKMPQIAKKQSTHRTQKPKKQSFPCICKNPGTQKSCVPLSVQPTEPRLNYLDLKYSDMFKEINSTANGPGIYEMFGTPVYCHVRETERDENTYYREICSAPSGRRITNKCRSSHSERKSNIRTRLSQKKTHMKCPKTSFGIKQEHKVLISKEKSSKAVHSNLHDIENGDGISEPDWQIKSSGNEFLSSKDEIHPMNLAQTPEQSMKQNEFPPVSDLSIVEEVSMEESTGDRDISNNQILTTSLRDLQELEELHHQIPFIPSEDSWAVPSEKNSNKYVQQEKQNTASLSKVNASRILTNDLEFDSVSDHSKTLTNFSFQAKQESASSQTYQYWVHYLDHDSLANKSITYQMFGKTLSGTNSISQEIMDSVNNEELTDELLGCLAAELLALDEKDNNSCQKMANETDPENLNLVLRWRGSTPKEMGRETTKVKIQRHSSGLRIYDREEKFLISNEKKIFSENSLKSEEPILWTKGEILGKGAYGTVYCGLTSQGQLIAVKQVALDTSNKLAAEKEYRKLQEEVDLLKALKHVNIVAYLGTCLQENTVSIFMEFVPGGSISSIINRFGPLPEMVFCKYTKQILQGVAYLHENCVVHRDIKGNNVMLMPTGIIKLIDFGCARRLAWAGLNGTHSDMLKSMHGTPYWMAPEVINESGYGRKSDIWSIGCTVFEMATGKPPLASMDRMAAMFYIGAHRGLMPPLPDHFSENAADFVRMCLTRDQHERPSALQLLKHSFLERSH
Experimental: as §1

[17] = target: T17, RPS6KA5(Kin.Dom.1-N-terminal) (Homo sapiens, UniProt O75582)
T17 construct: RPS6KA5(Kin.Dom.1-N-terminal); purchased Eurofins Discovery (DiscoverX KINOMEscan scanMAX)
Experimental: as §1

[18] = target: T18, AMPK-alpha1 (Homo sapiens, UniProt Q13131)
T18 construct: purchased Eurofins Discovery (DiscoverX KINOMEscan scanMAX)
T18 sequence (Q13131 whole entry): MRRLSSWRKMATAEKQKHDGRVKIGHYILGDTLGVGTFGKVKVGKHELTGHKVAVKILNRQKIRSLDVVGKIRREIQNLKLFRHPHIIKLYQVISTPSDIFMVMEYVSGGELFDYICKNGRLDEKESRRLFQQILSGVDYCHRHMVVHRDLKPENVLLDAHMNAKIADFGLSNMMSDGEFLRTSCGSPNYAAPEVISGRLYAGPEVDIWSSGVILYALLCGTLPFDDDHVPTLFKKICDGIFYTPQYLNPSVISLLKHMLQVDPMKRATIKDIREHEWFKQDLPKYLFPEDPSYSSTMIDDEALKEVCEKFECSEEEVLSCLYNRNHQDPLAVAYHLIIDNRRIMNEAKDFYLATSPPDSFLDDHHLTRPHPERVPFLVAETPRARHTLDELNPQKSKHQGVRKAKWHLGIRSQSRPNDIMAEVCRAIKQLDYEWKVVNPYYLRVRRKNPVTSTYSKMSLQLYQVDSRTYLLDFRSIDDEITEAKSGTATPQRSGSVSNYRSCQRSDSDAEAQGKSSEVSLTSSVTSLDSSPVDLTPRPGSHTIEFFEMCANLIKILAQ
Experimental: as §1

[19] = target: T19, CLK2 (Homo sapiens, UniProt P49760)
T19 construct: purchased Eurofins Discovery (DiscoverX KINOMEscan scanMAX)
Experimental: as §1

[20] = target: T20, PKAC-beta (Homo sapiens, UniProt P22694)
T20 construct: purchased Eurofins Discovery (DiscoverX KINOMEscan scanMAX)
Experimental: as §1

[21] = target: T21, CSF1R-autoinhibited (Homo sapiens, UniProt P07333)
T21 construct: purchased Eurofins Discovery (DiscoverX KINOMEscan scanMAX)
T21 sequence (P07333 539-972 limits assumed): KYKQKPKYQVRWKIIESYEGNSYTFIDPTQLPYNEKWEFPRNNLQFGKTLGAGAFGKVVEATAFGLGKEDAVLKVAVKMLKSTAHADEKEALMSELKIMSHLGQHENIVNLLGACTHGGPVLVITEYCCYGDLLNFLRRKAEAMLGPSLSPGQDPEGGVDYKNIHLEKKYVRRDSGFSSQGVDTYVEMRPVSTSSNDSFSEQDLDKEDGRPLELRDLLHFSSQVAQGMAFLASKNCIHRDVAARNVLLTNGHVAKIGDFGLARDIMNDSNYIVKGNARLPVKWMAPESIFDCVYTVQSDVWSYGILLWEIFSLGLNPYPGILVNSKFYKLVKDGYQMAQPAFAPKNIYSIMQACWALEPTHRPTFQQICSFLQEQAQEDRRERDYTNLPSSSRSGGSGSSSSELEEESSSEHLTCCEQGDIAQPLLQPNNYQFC
Experimental: as §1

[22] = target: T22, PRKCQ (Homo sapiens, UniProt Q04759)
T22 construct: purchased Eurofins Discovery (DiscoverX KINOMEscan scanMAX)
T22 sequence (Q04759 whole entry): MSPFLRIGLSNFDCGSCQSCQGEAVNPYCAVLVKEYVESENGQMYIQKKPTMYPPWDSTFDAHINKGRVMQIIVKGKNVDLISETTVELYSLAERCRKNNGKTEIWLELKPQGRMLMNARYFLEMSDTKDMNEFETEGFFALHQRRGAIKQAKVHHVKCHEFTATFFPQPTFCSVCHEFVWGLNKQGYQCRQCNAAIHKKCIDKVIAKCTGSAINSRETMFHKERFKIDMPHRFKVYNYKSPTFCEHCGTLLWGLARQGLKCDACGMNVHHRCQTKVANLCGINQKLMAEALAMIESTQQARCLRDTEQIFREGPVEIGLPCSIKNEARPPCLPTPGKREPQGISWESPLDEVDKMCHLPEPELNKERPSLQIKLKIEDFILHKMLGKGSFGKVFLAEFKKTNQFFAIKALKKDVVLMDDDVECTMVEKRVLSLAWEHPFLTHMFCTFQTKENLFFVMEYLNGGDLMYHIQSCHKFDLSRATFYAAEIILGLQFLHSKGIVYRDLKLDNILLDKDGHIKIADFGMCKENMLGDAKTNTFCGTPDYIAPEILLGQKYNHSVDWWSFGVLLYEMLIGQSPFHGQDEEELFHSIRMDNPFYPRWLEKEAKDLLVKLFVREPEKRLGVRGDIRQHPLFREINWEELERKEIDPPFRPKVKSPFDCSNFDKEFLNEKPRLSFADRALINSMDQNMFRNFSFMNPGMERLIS
Experimental: as §1

[23] = target: T23, TAOK3 (Homo sapiens, UniProt Q9H2K8)
T23 construct: purchased Eurofins Discovery (DiscoverX KINOMEscan scanMAX)
Experimental: as §1

[24] = target: T24, TAOK2 (Homo sapiens, UniProt Q9UL54)
T24 construct: purchased Eurofins Discovery (DiscoverX KINOMEscan scanMAX)
Experimental: as §1

[25] = target: T25, PIK4CB (Homo sapiens, UniProt Q9UBF8)
T25 construct: purchased Eurofins Discovery (DiscoverX KINOMEscan scanMAX)
Experimental: as §1

[26] = target: T26, RET (Homo sapiens, UniProt P07949)
T26 construct: purchased Eurofins Discovery (DiscoverX KINOMEscan scanMAX)
Experimental: as §1

[27] = target: T27, RSK2(Kin.Dom.1-N-terminal) (Homo sapiens, UniProt P51812)
T27 construct: RSK2(Kin.Dom.1-N-terminal); purchased Eurofins Discovery (DiscoverX KINOMEscan scanMAX)
Experimental: as §1

[28] = target: T28, ROCK2 (Homo sapiens, UniProt O75116)
T28 construct: purchased Eurofins Discovery (DiscoverX KINOMEscan scanMAX)
Experimental: as §1

[29] = target: T29, INSRR (Homo sapiens, UniProt P14616)
T29 construct: purchased Eurofins Discovery (DiscoverX KINOMEscan scanMAX)
Experimental: as §1

Cc1cc(Nc2ccc(F)c(CC3(C(=O)N4CCC(F)(CN5CCN(c6ccc(N7CCC(=O)NC7=O)cn6)CC5)CC4)CCN(Cc4cccc(Cl)c4F)CC3)n2)n[nH]1 [SK5527]
remaining binding at 0.1 µM ([1]; 100 nM): 91%
remaining binding at 1 µM ([1]; 1000 nM): 86%
remaining binding at 0.1 µM ([2]; 100 nM): 87%
remaining binding at 1 µM ([2]; 1000 nM): 70%
remaining binding at 0.1 µM ([3]; 100 nM): 100%
remaining binding at 1 µM ([3]; 1000 nM): 100%
remaining binding at 0.1 µM ([4]; 100 nM): 32%
remaining binding at 1 µM ([4]; 1000 nM): 8.3%
remaining binding at 0.1 µM ([5]; 100 nM): 100%
remaining binding at 1 µM ([5]; 1000 nM): 100%
remaining binding at 0.1 µM ([6]; 100 nM): 97%
remaining binding at 1 µM ([6]; 1000 nM): 89%
remaining binding at 0.1 µM ([7]; 100 nM): 94%
remaining binding at 1 µM ([7]; 1000 nM): 91%
remaining binding at 0.1 µM ([8]; 100 nM): 63%
remaining binding at 1 µM ([8]; 1000 nM): 69%
remaining binding at 0.1 µM ([9]; 100 nM): 100%
remaining binding at 1 µM ([9]; 1000 nM): 100%
remaining binding at 0.1 µM ([10]; 100 nM): 66%
remaining binding at 1 µM ([10]; 1000 nM): 44%
remaining binding at 0.1 µM ([11]; 100 nM): 55%
remaining binding at 1 µM ([11]; 1000 nM): 8.4%
remaining binding at 0.1 µM ([12]; 100 nM): 62%
remaining binding at 1 µM ([12]; 1000 nM): 17%
remaining binding at 0.1 µM ([13]; 100 nM): 67%
remaining binding at 1 µM ([13]; 1000 nM): 23%
remaining binding at 0.1 µM ([14]; 100 nM): 76%
remaining binding at 1 µM ([14]; 1000 nM): 72%
remaining binding at 0.1 µM ([15]; 100 nM): 94%
remaining binding at 1 µM ([15]; 1000 nM): 82%
remaining binding at 0.1 µM ([16]; 100 nM): 72%
remaining binding at 1 µM ([16]; 1000 nM): 72%
remaining binding at 0.1 µM ([17]; 100 nM): 95%
remaining binding at 1 µM ([17]; 1000 nM): 100%
remaining binding at 0.1 µM ([18]; 100 nM): 100%
remaining binding at 1 µM ([18]; 1000 nM): 100%
remaining binding at 0.1 µM ([19]; 100 nM): 88%
remaining binding at 1 µM ([19]; 1000 nM): 93%
remaining binding at 0.1 µM ([20]; 100 nM): 90%
remaining binding at 1 µM ([20]; 1000 nM): 100%
remaining binding at 0.1 µM ([21]; 100 nM): 100%
remaining binding at 1 µM ([21]; 1000 nM): 100%
remaining binding at 0.1 µM ([22]; 100 nM): 100%
remaining binding at 1 µM ([22]; 1000 nM): 94%
remaining binding at 0.1 µM ([23]; 100 nM): 100%
remaining binding at 1 µM ([23]; 1000 nM): 100%
remaining binding at 0.1 µM ([24]; 100 nM): 100%
remaining binding at 1 µM ([24]; 1000 nM): 100%
remaining binding at 0.1 µM ([25]; 100 nM): 73%
remaining binding at 1 µM ([25]; 1000 nM): 65%
remaining binding at 0.1 µM ([26]; 100 nM): 88%
remaining binding at 1 µM ([26]; 1000 nM): 39%
remaining binding at 0.1 µM ([27]; 100 nM): 80%
remaining binding at 1 µM ([27]; 1000 nM): 68%
remaining binding at 0.1 µM ([28]; 100 nM): 100%
remaining binding at 1 µM ([28]; 1000 nM): 45%
remaining binding at 0.1 µM ([29]; 100 nM): 97%
remaining binding at 1 µM ([29]; 1000 nM): 90%
